In US20250066446A1, “FUSION PROTEINS FOR THE TREATMENT OF CARDIOMETABOLIC DISEASES” (Shattuck Labs, Inc., priority 2022, published 2025):
“Also recorded” adds a separate entry of the source. Where no end group is shown, it is not given here.

Tests used:
[1] = biological target: GlP receptor (GlPR) of rat INS-1 insulinoma cells (UniProt P43219)
[2] = biological target: glucose-dependent insulinotropic polypeptide receptor (GlPR) on GeneBLAzer GlPR-CRE-bla HEK293T cells (UniProt P48546); test: cell-based or functional assay
GlPR = biological target: T1, GlPR (Rattus norvegicus, UniProt P43219); test: pGloSensor-22F cAMP biosensor assay in rat INS-1 cells (GlPR agonism and antagonism); format: cell-based; parameters: dose or concentration left out as unconfirmed; settings: increasing doses mixed with GlP(Ag)
T1 construct: endogenous in cells; host or cells: rat INS-1 insulinoma cells carrying a cAMP reporter (a cAMP-luciferase reporter in A2, the pGloSensor-22F biosensor in A4)
T1 sequence (P43219 19-455): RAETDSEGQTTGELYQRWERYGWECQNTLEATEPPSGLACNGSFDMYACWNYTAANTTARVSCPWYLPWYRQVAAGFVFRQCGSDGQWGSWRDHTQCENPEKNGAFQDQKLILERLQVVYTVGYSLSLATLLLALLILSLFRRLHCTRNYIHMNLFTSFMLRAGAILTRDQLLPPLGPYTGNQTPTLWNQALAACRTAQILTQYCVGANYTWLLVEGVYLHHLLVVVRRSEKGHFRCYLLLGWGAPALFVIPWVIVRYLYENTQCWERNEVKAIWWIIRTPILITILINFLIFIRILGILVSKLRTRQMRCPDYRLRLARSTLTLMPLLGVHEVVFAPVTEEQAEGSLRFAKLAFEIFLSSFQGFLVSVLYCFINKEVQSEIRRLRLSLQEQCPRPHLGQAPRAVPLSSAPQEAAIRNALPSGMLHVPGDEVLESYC
Method: Briefly, rat INS-1 cells having pGloSensor-22F (Promega) were constructed and used to evaluate GlPR agonism and antagonism. […] The conformational change leads to the activation of the luciferase enzyme, thereby allowing detection of activation of GlPR, which produces cAMP upon activation.
Immediately after the addition, the luminescence of the cells was measured, normalized using the basal luminescence and plotted.

[3] = human NASH patients; cited from earlier work
[4] = Longer-term obesity model in HFD-fed mice; settings: for blood glucose levels: Days 0, 1, 10 and 15; for blood glucose levels / average daily food intake: compared to the untreated mice; for plasma insulin levels on Day 15: FIG. 8C right panel; for liver weight / subcutaneous white adipose tissue (sWAT) weight: day 19 terminal necropsy, vs PBS control; for change in body weight: tail vein dosing Day 0, 4, 7, 10, 14, 18, weighed every 2 days; for collagen staining (fibrosis), picrosirius red liver sections / hepatocellular ballooning and steatosis, H&E liver histology: vs vehicle-treated mice
Method: Mice (Male C57BL/6) were of approximately 13 weeks of age were housed 4 mice per cage. Following 2 weeks of acclimatation, mice were introduced to 60% kcal HFD (Research Diets D12492). Cages were changed once, then changed once a week. Weekly body weights and non-fasted blood glucose were collected.
Mice were injected by tail vein with vehicle or the drugs on Day 0, Day 4, Day 7, Day 10, Day 14, and Day 18. Body weights were measured every 2 days. Change in body weight was calculated and plotted.
Cumulative food intake was measured between day 0 and 3, between day 4 and 7, between day 7 and day 11, and between day 11 and day 14, and represented as average daily food intake. For food consumption, remaining food was weighed on days 3, 8, and 15, and subtracted from the starting weight. This value was then normalized to the number of mice in the cage, and the number of days the mice had access to the food prior to weighing.
Blood glucose levels were measured on Days 0, 1, 10 and 15 and plotted.
On day 19 during terminal necropsy, liver and subcutaneous white adipose tissue were recovered weighed from treated animals.
To further analyze the changes in liver, histopathological analysis was conducted. Briefly, the liver tissue was stained with hematoxylin and eosin (H&E) and evaluated using standard techniques.

[5] = biological target: T2, glucose-dependent insulinotropic polypeptide receptor (GlPR) (Homo sapiens, UniProt P48546); test: GeneBLAzer GlPR-CRE-bla HEK293T cell-based reporter assay; settings: 5 hours incubation; for 460/530 ratio, indicative of the activation of GlPR: increasing amounts
T2 construct: host or cells: GeneBLAzer GIPR-CRE-bla HEK293T cells
T2 sequence (P48546 22-466): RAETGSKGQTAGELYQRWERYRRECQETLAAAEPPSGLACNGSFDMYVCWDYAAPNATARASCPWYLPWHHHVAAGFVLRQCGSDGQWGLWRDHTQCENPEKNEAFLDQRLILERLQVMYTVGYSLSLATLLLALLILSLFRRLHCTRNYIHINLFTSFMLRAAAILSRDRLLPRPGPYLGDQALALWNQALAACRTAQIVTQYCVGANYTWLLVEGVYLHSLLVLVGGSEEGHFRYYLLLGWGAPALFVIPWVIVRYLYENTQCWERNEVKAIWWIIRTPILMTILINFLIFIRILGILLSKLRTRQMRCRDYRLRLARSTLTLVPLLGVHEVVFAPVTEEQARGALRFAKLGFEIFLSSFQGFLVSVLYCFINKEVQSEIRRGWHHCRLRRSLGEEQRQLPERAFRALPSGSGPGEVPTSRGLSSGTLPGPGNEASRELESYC
Method: This assay is diagrammatically represented in FIG. 3A. […] In the presence of the β-lactamase LiveBLAzer™ substrate, cells expressing β-lactamase fluoresce blue (460 nm), while those not expressing β-lactamase fluoresce green (530 nm); higher 460/530 ratio indicates the activation of GlPR.
Briefly, GeneBLAzer® GlPR-CRE-bla HEK293T cells were added to wells of black-wall assay plates. […] To each well, LiverBLAzer-FRET B/G substrate mixture was added. The plate was covered with plate sealer and incubated at room temperature for 2 hours in the dark. Fluorescence emission was measured on SpectraMax plate reader at 460 nm and 530 nm with excitation set to 409 nm. After subtraction of background, average value at 460 nm (blue color) was divided by average value at 530 nm (green color) to obtain the 460/530 ratio.

GlP receptor (GlPR) = biological target: T3, GlP receptor (GlPR) (Rattus norvegicus, UniProt P43219); test: cAMP-Glo assay in rat insulinoma INS-1 cells harboring a cAMP-luciferase reporter gene; format: cell-based; settings: 1 hour glucose, then 2 hour incubation with increasing amounts
T3 construct: endogenous in cells; host or cells: rat INS-1 insulinoma cells carrying a cAMP reporter (a cAMP-luciferase reporter in A2, the pGloSensor-22F biosensor in A4)
T3 sequence (P43219 19-455): T1 sequence (P43219 19-455)
Text: Rat insulinoma INS-1 cells harboring a cAMP-luciferase reporter gene were used to study the activation of GlPR. Without wishing to be bound by theory, the activation of GlPR leads to temporary depletion of ATP because of consumption of ATP in cyclization reaction to produce cAMP as well as by phosphorylation by protein kinase A of its substrate. Without wishing to be bound by theory, the temporary depletion of ATP leads to an inhibition of luciferase activity, which needs ATP as a substrate.

[6] = Glucose tolerance test (GTT) model in HFD-fed mice; format: in vivo, mice (Male C57BL/6); settings: i.v. treatment, 18 hours fast, 2 g/kg glucose, 15 min to 2 hours
Method: Cages were changed once, then changed once a week.
The mice administered the above treatment by i.v. injections. The mice were then fasted for 18 hours and administered a dose of 2 g/kg glucose by i.v. injections. Blood samples were drawn by tail clip bleeding at 15, 30 and 60 minutes post dosing and cardiac bleeding was used at 2 hours after glucose injection as end-point.

[7] = tested on: rat insulinoma INS-1 cells; test: in vitro glucose-stimulated insulin secretion (GSIS) in INS-1 cells; format: cell-based; settings: 1 hour glucose, then 2 hour incubation; ELISA
Text: X is a known inducer of GSIS.

Molecule: GlP(Ag)-Fc fusion protein (from UniProt P09681 52-93)
- EC50 (read off the curve): fall of cAMP-Glo luminescence, rat INS-1 cells [1]: 0.007 pM
- EC50 of GlPR activation (460/530 ratio, GeneBLAzer GlPR-CRE-bla HEK293T beta-lactamase reporter) [2]: 11.8 pM

Molecule: GlP(AntPro3): GlP Antagonist (amino acids 1-42, having a E3P substitution); SEQ ID NO: 97 (YAPGTFISDYSIAMDKIHQQDFVNWLLAQKGKKNDWKHNITQ)
- inhibition of GlP(Ag)-induced activation of the cAMP-luciferase reporter gene (GlPR antagonism) (GlPR): more potent inhibition of GlP agonist signaling than the others tested; also recorded: maximal level of a dose-dependent inhibition of GlP(Ag)-induced activation

Molecule: GlP(AntPro3NH2): GlP antagonist peptide derivative of GlP(AntPro3), NH2 form (YAPGTFISDYSIAMDKIHQQDFVNWLLAQKGKKNDWKHNITQ-NH2)
- inhibition of GlP(Ag)-induced activation of the cAMP-luciferase reporter gene (GlPR antagonism) (GlPR): more potent inhibition of GlP agonist signaling than the others tested; also recorded: maximal level of a dose-dependent inhibition of GlP(Ag)-induced activation

Molecule: Pegbelfermin [Pegbelfermin (BMS-986036)]
- liver fat content [3]: reduce liver fat content

Molecule: dulaglutide [reference compound]
- blood glucose levels [4]: decrease in blood glucose
- plasma insulin levels on Day 15 [4]: significant decrease in the levels of insulin
- plasma insulin levels on Day 1 ([4]; between 15 and 120 minutes after treatment): rapid decrease in insulin levels
- average daily food intake [4]: decrease in food intake
- liver weight [4]: livers of control mice that received only PBS were much heavier
- subcutaneous white adipose tissue (sWAT) weight [4]: decreased
- change in body weight [4]: progressive weight loss
- tolerability, clinical observations ([4]; tail vein dosing Day 0 to Day 18): well tolerated and no overt toxicities were noted
- collagen staining (fibrosis), picrosirius red liver sections [4]: decrease in collagen staining
- hepatocellular ballooning and steatosis, H&E liver histology [4]: decrease in hepatocellular ballooning and steatosis

Molecule: tirzepatide (peptide)
- EC50 (read off the curve): fall of cAMP-Glo luminescence, rat INS-1 cells [1]: 0.003 pM

Molecule: tirzepatide [reference compound]
- 460/530 ratio, indicative of the activation of GlPR [5]: dose-dependent and saturable increase in 460/530 ratio
- luciferase activity (cAMP-Glo), activation of GlPR (GlP receptor (GlPR)): dose-dependent and saturable inhibition of luciferase with similar potency
- serum insulin following glucose administration [6]: rapid induction of insulin
- serum glucose following glucose administration ([6]; vs PBS control): much smaller increase in serum glucose
- blood glucose levels [4]: decrease in blood glucose
- plasma insulin levels on Day 15 [4]: significant decrease in the levels of insulin
- average daily food intake [4]: decrease in food intake
- hepatocellular ballooning and steatosis, H&E under higher magnifications ([4]; compared to untreated animals): significant decrease in hepatocellular ballooning and steatosis
- liver weight [4]: livers of control mice that received only PBS were much heavier
- subcutaneous white adipose tissue (sWAT) weight [4]: decreased
- change in body weight [4]: progressive weight loss
- collagen staining (fibrosis), picrosirius red liver sections [4]: decrease in collagen staining
- hepatocellular ballooning and steatosis, H&E liver histology [4]: decrease in hepatocellular ballooning and steatosis

B1: GlP(Ag)-Fc-FGF19: GlP fused to FGF19 via a hinge-CH2-CH3 Fc domain derived from IgG1; SEQ ID NO: 88 (protein)
chain: YAEGTFISDYSIAMDKIHQQDFVNWLLAQKGKKNDWKHNITQPCPAPEAAGGPSVFLFPPKPKDTLMISRTPEVTCVVVDVSHEDPEVKFNWYVDGVEVHNAKTKPREEQYNSTYRVVSVLTVLHQDWLNGKEYKCKVSNKALPAPIEKTISKAKGQPREPQVYTLPPSRDELTKNQVSLTCLVKGFYPSDIAVEWESNGQPENNYKTTPPVLDSDGSFFLYSKLTVDKSRWQQGNVFSCSVMHEALHNHYTQKSLSLSPGKIEGRMDRDSSPLVHYGWGDPIRLRHLYTSGPHGLSSCFLRIRADGVVDCARGQSAHSLLEIKAVALRTVAIKGVHSVRYLCMGADGKMQGLLQYSEEDCAFEEEIRPDGYNVYRSEKHRLPVSLSSAKQRQLYKNRGFLPLSHFLPMLPMVPEEPEDLRGHLESDMFSSPLETDSMDPFGLVTGLEAVRSPSFEK
- EC50 ([5]; 460/530 ratio, purified proteins, read-out: EC50 of GlPR activation): 13.1 pM
- 460/530 ratio, indicative of the activation of GlPR [5]: dose-dependent and saturable increase in 460/530 ratio
- luciferase activity (cAMP-Glo), activation of GlPR (GlP receptor (GlPR)): dose-dependent and saturable inhibition of luciferase with similar potency
- insulin in the culture supernatant (GSIS) [7]: stimulated insulin production to a similar, if not greater magnitude than dulaglutide or tirzepatide
